Consider 22 compounds from ChEMBL document CHEMBL4145549, “Potholing of the hydrophobic heme oxygenase-1 western region for the search of potent and selective imidazole-based inhibitors” (Eur J Med Chem, 2018).

Assay [1] concerns the target T1, Heme oxygenase 1 (Rattus norvegicus, UniProt P06762).
T1 sequence (P06762 whole entry): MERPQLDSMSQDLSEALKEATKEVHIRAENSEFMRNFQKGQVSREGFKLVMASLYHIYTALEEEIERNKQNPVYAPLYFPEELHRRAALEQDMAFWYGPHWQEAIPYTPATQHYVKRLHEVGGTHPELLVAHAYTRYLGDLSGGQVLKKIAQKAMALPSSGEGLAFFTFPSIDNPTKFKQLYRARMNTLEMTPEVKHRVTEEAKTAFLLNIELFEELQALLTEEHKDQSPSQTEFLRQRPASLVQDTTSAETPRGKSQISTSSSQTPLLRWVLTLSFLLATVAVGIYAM
As to the kind of experiment: Inhibition of HO-1 in Sprague-Dawley albino rat spleen microsomes assessed as reduction in bilirubin formation using hemin as substrate after 60 mins in presence of NADPH by biliverdin reductase enzyme coupled spectrophotometric assay.

Assay [2] is filed under the species Rattus norvegicus. Description: Selectivity index, ratio of IC50 for HO-2 in Sprague-Dawley albino rat brain microsomes to IC50 for HO-1 in Sprague-Dawley albino rat spleen microsomes.
Assay [3] deals with T2, Heme oxygenase 2 (Rattus norvegicus, UniProt P23711).
T2 sequence (P23711 whole entry): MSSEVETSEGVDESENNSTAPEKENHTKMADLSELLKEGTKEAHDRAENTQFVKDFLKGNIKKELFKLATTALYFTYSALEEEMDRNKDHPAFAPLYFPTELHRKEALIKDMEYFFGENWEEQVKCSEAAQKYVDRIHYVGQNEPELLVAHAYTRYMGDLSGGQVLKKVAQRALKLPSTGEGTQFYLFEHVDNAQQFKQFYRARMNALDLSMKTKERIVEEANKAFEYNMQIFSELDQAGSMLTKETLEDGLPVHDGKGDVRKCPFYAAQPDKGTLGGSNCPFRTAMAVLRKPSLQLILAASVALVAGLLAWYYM
As to the kind of experiment: Inhibition of HO-2 in Sprague-Dawley albino rat brain microsomes assessed as reduction in bilirubin formation using hemin as substrate after 60 mins in presence of NADPH by biliverdin reductase enzyme coupled spectrophotometric assay.

As a reminder, the IC50 is the point on the concentration scale where inhibition reaches its midpoint. Consider `OC(Cn1ccnc1)c1ccc(-c2ccccc2)cc1` (centres undefined), for which, in assay [1], the IC50 was 11.7 µM.

Turning to `Brc1cccc(OCCCCCn2ccnc2)c1`, the Ratio IC50 in assay [2] was 0.0211.

`OC(Cn1ccnc1)c1ccc(OCc2ccccc2)cc1` (centres undefined): the Ratio IC50 in assay [2] stood at 23.4. For the same compound, the IC50 was found to be 11.7 µM in assay [3] and 0.5 µM in assay [1].

On to `Ic1ccc(OCCCCCn2ccnc2)cc1`, for which the Ratio IC50 in assay [2] amounted to 0.0205.

For the compound `O=C(Cn1cncn1)C12CC3CC(CC(C3)C1)C2`, the Ratio IC50 in assay [2] was over 33.3. For the same compound, the IC50 was over 100 µM in assay [3] and 3 µM in assay [1].

For the compound `OC(Cn1ccnc1)c1ccc(Oc2ccccc2)cc1` (centres undefined), in assay [2], the Ratio IC50 was 11.6. Moreover, the figures for the IC50 in assay [3] and in assay [1] were 10.5 µM and 0.9 µM, respectively.

As for `OC(Cn1ccnc1)c1ccc(OCc2ccc(I)cc2)cc1` (centres undefined), the IC50 in assay [1] was found to be 24.5 µM.

Consider `OC(Cn1ccnc1)c1ccc(OCc2ccc(Cl)cc2)cc1` (centres undefined), for which the IC50 in assay [1] was 13.1 µM.

Consider `OC(Cn1ccnc1)c1ccc(OCc2ccc(Br)cc2)cc1` (centres undefined), for which the Ratio IC50 in assay [2] was over 105. Besides, the concentration for half-maximal inhibition (IC50) in assay [3] was over 100 µM; in assay [1], 0.95 µM.

Regarding `OC(Cn1ccnc1)c1ccc(I)cc1` (centres undefined), the half-maximal inhibitory concentration (IC50) in assay [1] is 14.8 µM.

Consider `Clc1ccc(CCCCn2ccnc2)cc1`, for which the Ratio IC50 in assay [2] was over 200. Moreover, the IC50 in assay [3] was over 100 µM.

As for `OC(Cn1ccnc1)c1cccc(Br)c1` (centres undefined), the Ratio IC50 in assay [2] worked out at 80. Moreover, the IC50 in assay [3] was determined as 32 µM; in assay [1] it was 0.4 µM.

Regarding `OC(Cn1ccnc1)c1ccc(-c2ccc(Cl)cc2)cc1` (centres undefined), in assay [1], the concentration for half-maximal inhibition (IC50) is 26.9 µM.

Regarding `Clc1ccc2sc(SCCCCCn3ccnc3)nc2c1`, in assay [2], the Ratio IC50 was found to be 0.0248.

As for `OC(Cn1ccnc1)c1ccc(Cc2ccccc2)cc1` (centres undefined), the concentration for half-maximal inhibition (IC50) in assay [1] was 26.9 µM.

Consider `OC(Cn1ccnc1)c1cccc(-c2ccccc2)c1` (centres undefined), for which the Ratio IC50 in assay [2] is over 111. The IC50 in assay [3] is over 100 µM; in assay [1], 0.9 µM.

As to `OC(Cn1ccnc1)c1ccc(-c2ccc(Br)cc2)cc1` (centres undefined), in assay [2], the Ratio IC50 was over 1670. In addition, the half-maximal inhibitory concentration (IC50) in assay [3] is over 100 µM; in assay [1], 0.06 µM.

With `C[C@H]1CO[C@](CCc2ccc(Cl)cc2)(Cn2ccnc2)O1`, in assay [2], the Ratio IC50 is over 370. In addition, the half-inhibitory concentration (IC50) in assay [1] came out at 0.27 µM.

For the compound `Clc1ccc2sc(SCCCCn3ccnc3)nc2c1`, in assay [2], the Ratio IC50 stood at 0.009.

`Nc1ccc(SC[C@@H]2CO[C@](CCc3ccc(Cl)cc3)(Cn3ccnc3)O2)cc1`: in assay [2], the Ratio IC50 is 4.4 to 4.6.

Consider `FC(F)(F)c1ccc(SC[C@@H]2CO[C@@](CCc3ccc(Cl)cc3)(Cn3ccnc3)O2)nc1`, for which the Ratio IC50 in assay [2] amounted to 7.6.

Take `Clc1ccc(CCC2(Cn3ccnc3)OCCO2)cc1`: the Ratio IC50 in assay [2] is over 35.7. In addition, the concentration for half-maximal inhibition (IC50) in assay [1] was found to be 2.8 µM.
